Assay results published in patent US9340577B2, “HLA binding motifs and peptides and their uses” (priority 1992, dated 2016).
Read-outs that look alike come from different tables or passages of the source. No end group written: not given here.

Assays:
Assay in all cases: biochemical
Format in all cases: binding
[1] = biological target: DR1 (DRB1*0101) (Homo sapiens, UniProt P01903+P01911, A100R/D57E/F55L/F60I/F76Y/I96L/L162R/M171V/P40L/Q125E/R42F/V115G/Y59C)
[2] = biological target: A31 (A*3101) (Homo sapiens, UniProt P04439, A270S/D185E/E176V/E277Q/F33T/G231S/G80R/H175R/I121M/I218V/I322F/K168Q/L300P/L318F/M331R/P217A/Q94H/R138Q/T323A/T345S/T97I/V358M)
[3] = biological target: A*6801 (Homo sapiens, UniProt P04439, A269V/D185E/E176V/E277Q/E87N/F33Y/G231S/I121M/I166T/I218V/L180W/L300P/L318F/N151K/P208A/P217A/Q86R/R169H/T345S)
[4] = biological target: HLA-A11 (A*1101) (Homo sapiens, UniProt P04439, A114D/D185E/E176A/F33Y/L180Q/S129P/T187R)
[5] = biological target: A*3301 (Homo sapiens, UniProt P04439, A270S/D185E/E176V/E277Q/E87N/F33T/G231S/H175R/I121M/I218V/I322F/K168Q/K210R/L300P/L318F/M331R/P217A/Q86R/Q94H/R138Q/T323A/T345S/T97I/V358M/Y195H)
[6] = biological target: HLA-A3.2 (A*0301) (Homo sapiens, UniProt P04439)

Compound	IC50 [1]	also measured
GTDWKLRLPASPETH [Peptide 9014.0094]	799 nM	
ITDFGLARSLDIDET [Peptide 9014.0188]	69 nM	
ETEHVEPLTPSGAMP [Peptide 9014.0143]	62 nM	
ETEFVEPLTPSGAMP [Peptide 9014.0142]	25 nM	
CWMIDSESRPRFREL [Peptide 9014.0225]	459 nM	
QNYIQNDTGFYTLHV [Peptide 9014.0077]	454 nM	
ETELVEPLIPSGAMP [Peptide 9014.0152]	55 nM	
KEILDEAYLMAGVGS [Peptide 9014.0170]	969 nM	
KVFGSLAFLPESFDGDPA [Peptide 9014.0235]	672 nM	
ETELVEPLAPSGAMP [Peptide 9014.0149]	45 nM	
KWFGSLAFLPESFDGDPA [Peptide 9014.0236]	447 nM	
NASLLIQNSIQNDTG [Peptide 9014.0015]	100 nM	
GTDMKLRLNASPETH [Peptide 9014.0101]	225 nM	
GTDMKLRLSASPETH [Peptide 9014.0102]	65 nM	
DMKLRLPAIPETHLD [Peptide 9014.0135]	764 nM	
RTTVKTITLSAELPK [Peptide 9014.0065]	721 nM	
CC(C)[C@H](NC(=O)[C@@H]1CCCN1C(=O)[C@H](CCCCN)NC(=O)[C@H](CO)NC(=O)[C@H](CC(N)=O)NC(=O)[C@H](CC(N)=O)NC(=O)[C@H](CO)NC(=O)[C@H](CO)NC(=O)[C@H](Cc1ccccc1)NC(=O)[C@H](CO)NC(=O)[C@@H]1CCCN1C(=O)[C@@H](N)CCCCN)C(=O)N[C@@H](CCC(=O)O)C(=O)N[C@@H](CC(=O)O)C(=O)N[C@@H](CCCCN)C(=O)O [Peptide 9014.0037]	22 nM	
ETEAVEPLTPSGAMP [Peptide 9014.0141]	51 nM	
KFFGSLAFLPESFDGDPA [Peptide 9014.0231]	225 nM	
ETELVEPLFPSGAMP [Peptide 9014.0150]	304 nM	
CWMIDSETRPRFREL [Peptide 9014.0226]	371 nM	
CWMIDSEARPRFREL [Peptide 9014.0219]	55 nM	

Compound	IC50 [1]	also measured
CC[C@H](C)[C@H](NC(=O)[C@@H](NC(=O)[C@H](CCCCN)NC(=O)[C@H](Cc1ccccc1)NC(=O)[C@@H](NC(=O)[C@@H](NC(=O)[C@@H](N)CCCNC(=N)N)[C@@H](C)O)[C@@H](C)O)[C@@H](C)O)C(=O)N[C@H](C(=O)N[C@H](C(=O)N[C@@H](CO)C(=O)N[C@@H](C)C(=O)N[C@@H](CCC(=O)O)C(=O)N[C@@H](CC(C)C)C(=O)N1CCC[C@H]1C(=O)N[C@@H](CCCCN)C(=O)O)C(C)C)[C@@H](C)O [Peptide 9014.0054]	55 nM	
DMKLRLSASPETHLD [Peptide 9014.0121]	823 nM	
ETEVVEPLTPSGAMP [Peptide 9014.0146]	40 nM	
ETEWVEPLTPSGAMP [Peptide 9014.0147]	24 nM	
GTDMKLRLVASPETH [Peptide 9014.0104]	17 nM	
DMKLRLIASPETHLD [Peptide 9014.0118]	12 nM	
ETELVEPLLPSGAMP [Peptide 9014.0153]	335 nM	
824.22 (AAKTAAAFA; also: non-natural residue (46)) [Peptide 824.22]		IC50 ([1]; read-out: DRB1*0101): 5000 nM
KLFGSLAFLPESFDGDPA [Peptide 9014.0234]	795 nM	
ETEIVEPLTPSGAMP [Peptide 9014.0144]	481 nM	
GTDMKLRLIASPETH [Peptide 9014.0099]	18 nM	
730.12 (Ac-AAAKATAAAAAA; also: non-natural residue (10)) [Peptide 730.12]		IC50 ([1]; read-out: DRB1*0101): 5000 nM
KIFGSLTFLPESFDGDPA [Peptide 9014.0244]	233 nM	
ETELVEPLSPSGAMP [Peptide 9014.0155]	117 nM	
KIFGSLLFLPESFDGDPA [Peptide 9014.0241]	433 nM	
GTDMKLRLHASPETH [Peptide 9014.0098]	823 nM	
DMKYRLPASPETHLD [Peptide 9014.0131]	776 nM	
KIFGSLAWLPESFDGDPA [Peptide 9014.0252]	120 nM	
KIFGSLAFLPESHDGDPA [9014,0255]	813 nM	
QNFIQNDTGFYTLHV [Peptide 9014.0071]	677 nM	
ETEKVEPLTPSGAMP [Peptide 9014.0145]	21 nM	
GTDMKLRLTASPETH [Peptide 9014.0103]	45 nM	

Compound	IC50 [1]	also measured
KIFGSLAILPESFDGDPA [Peptide 9014.0248]	382 nM	
CWMIDSEHRPRFREL [Peptide 9014.0221]	868 nM	
KIFGSLAYLPESFDGDPA [Peptide 9014.0253]	636 nM	
GTDMKLRLLASPETH [Peptide 9014.0100]	13 nM	
KIFGSLNFLPESFDGDPA [Peptide 9014.0242]	225 nM	
DMKLRLVASPETHLD [Peptide 9014.0123]	28 nM	
ETELVEPLVPSGAMP [Peptide 9014.0156]	85 nM	
DMKLRLLASPETHLD [Peptide 9014.0119]	12 nM	
CWMIDSEVRPRFREL [Peptide 9014.0227]	753 nM	
ETELVEPLHPSGAMP [Peptide 9014.0151]	31 nM	
CC(C)[C@H](NC(=O)[C@@H]1CCCN1C(=O)[C@H](CCCCN)NC(=O)[C@H](CO)NC(=O)[C@H](CC(N)=O)NC(=O)[C@H](CC(N)=O)NC(=O)[C@H](CO)NC(=O)[C@H](CO)NC(=O)[C@H](Cc1ccc(O)cc1)NC(=O)[C@H](CO)NC(=O)[C@@H]1CCCN1C(=O)[C@@H](N)CCCCN)C(=O)N[C@@H](CCC(=O)O)C(=O)N[C@@H](CC(=O)O)C(=O)N[C@@H](CCCCN)C(=O)O [Peptide 9014.0043]	39 nM	
CSCC[C@H](NC(=O)[C@@H](NC(=O)[C@H](C)N)[C@@H](C)O)C(=O)N[C@@H](CS)C(=O)N[C@@H](CCCCN)C(=O)N[C@@H](Cc1c[nH]cn1)C(=O)N[C@@H](Cc1ccc(O)cc1)C(=O)N[C@@H](CCCNC(=N)N)C(=O)N[C@@H](CCCNC(=N)N)C(=O)O [Peptide 88.0343]		IC50 [2]: 23 nM; IC50 [3]: 55 nM; IC50 [4]: 19 nM; IC50 [5]: 74 nM; IC50 [6]: 221 nM
SFMELVRPFK [Peptide 88.0163]		IC50 [2]: 7.7 nM; IC50 [3]: 1390 nM; IC50 [4]: 199 nM; IC50 [5]: 3.3 nM; IC50 [6]: 2020 nM
KLVEDRWNK [Peptide 9017.0107]		IC50 [2]: 61 nM; IC50 [3]: 18000 nM; IC50 [4]: 102 nM; IC50 [5]: > 20000 nM; IC50 [6]: 265 nM
WTIAYIEYR [Peptide 9017.0116]		IC50 [2]: 97 nM; IC50 [3]: 8.6 nM; IC50 [4]: 31 nM; IC50 [5]: 14 nM; IC50 [6]: 11300 nM
WTYFDTYMR [Peptide 88.0346]		IC50 [2]: 332 nM; IC50 [3]: 3.8 nM; IC50 [4]: 293 nM; IC50 [5]: 95 nM; IC50 [6]: > 20000 nM
GTAKSVTCTR [Peptide 1556.31]		IC50 [2]: 214 nM; IC50 [3]: 208 nM; IC50 [4]: 98 nM; IC50 [5]: 168 nM; IC50 [6]: 960 nM
GLYYWCDGEK [Peptide 88.0229]		IC50 [2]: 5100 nM; IC50 [3]: 10000 nM; IC50 [4]: 24 nM; IC50 [5]: > 20000 nM; IC50 [6]: 107 nM
EFMSFLTALK [Peptide 1587.10]		IC50 [2]: 5960 nM; IC50 [3]: 20 nM; IC50 [4]: 683 nM; IC50 [5]: 21 nM; IC50 [6]: 477 nM
NSNAAAFLR [Peptide 88.0387]		IC50 [2]: 158 nM; IC50 [3]: 20 nM; IC50 [4]: 213 nM; IC50 [5]: 50 nM; IC50 [6]: > 20000 nM
LLYGPANTGK [Peptide 1587.56]		IC50 [2]: 6300 nM; IC50 [3]: 44 nM; IC50 [4]: 8.8 nM; IC50 [5]: 14500 nM; IC50 [6]: 14 nM
